Test results taken from ChEMBL document CHEMBL5241058, “Pyrazole-based analogs as potential antibacterial agents against methicillin-resistance staphylococcus aureus (MRSA) and its SAR elucidation” (Eur J Med Chem, 2021).
In brackets after ≈: the same amount, converted by molar mass.

Assays:
Type in all cases: functional
Staphylococcus aureus [1] = assay: Antimicrobial activity against Staphylococcus aureus MTCC 442 assessed as bacterial growth inhibition incubated for 24 to 48 hrs; conditions: time 24-48 hrs
Staphylococcus aureus [2] = assay: Antimicrobial activity against Staphylococcus aureus MTCC 96 assessed as bacterial growth inhibition incubated for 24 to 48 hrs; conditions: time 24-48 hrs
Staphylococcus aureus [3] = assay: Antimicrobial activity against Methicillin-resistant Staphylococcus aureus CCARM 3506 assessed as bacterial growth inhibition incubated for 24 hrs by ELISA assay
Staphylococcus aureus [4] = assay: Antimicrobial activity against Methicillin-resistant Staphylococcus aureus assessed as bacterial growth inhibition
Pseudomonas aeruginosa = assay: Antimicrobial activity against Pseudomonas aeruginosa ATCC 27853 assessed as bacterial growth inhibition incubated for 18 hrs by microdilution method
Klebsiella pneumoniae = assay: Antimicrobial activity against Klebsiella pneumoniae ATCC 314588 assessed as bacterial growth inhibition incubated for 18 hrs by microdilution method
[5] = tested on: Salmonella enterica subsp. enterica; assay: Antimicrobial activity against Salmonella typhimurium […] assessed as bacterial growth inhibition incubated for 18 hrs by microdilution method
Escherichia coli = assay: Antimicrobial activity against Escherichia coli ATCC 8739 assessed as bacterial growth inhibition incubated for 18 hrs by microdilution method
Staphylococcus aureus [6] = assay: Antimicrobial activity against Methicillin-resistant Staphylococcus aureus assessed as bacterial growth inhibition incubated for 24 to 48 hrs by microdilution method; conditions: time 24-48 hrs
Staphylococcus aureus [7] = assay: Antimicrobial activity against vancomycin intermediate-resistant Staphylococcus aureus assessed as bacterial growth inhibition incubated for 24 hrs by microdilution method
Staphylococcus aureus [8] = assay: Antimicrobial activity against Methicillin-resistant Staphylococcus aureus ATCC 43300 assessed as bacterial growth inhibition incubated for 24 hrs by microdilution method; conditions: ATCC43300
Staphylococcus aureus [9] = assay: Antimicrobial activity against Methicillin-resistant Staphylococcus aureus ATCC 33599 assessed as bacterial growth inhibition
Staphylococcus aureus [10] = assay: Antimicrobial activity against Methicillin-resistant Staphylococcus aureus ATCC 3167 assessed as bacterial growth inhibition
Staphylococcus aureus [11] = assay: Antimicrobial activity against Methicillin-resistant Staphylococcus aureus ATCC 43300 assessed as bacterial growth inhibition by microdilution method
Staphylococcus aureus [12] = assay: Antibiofilm activity against Methicillin-resistant Staphylococcus aureus USA 300 relative to control

With O=C(/C=C/c1cccc(F)c1)N1N=C(c2ccncc2)OC1c1cn(-c2ccccc2)nc1-c1ccc(F)cc1 (stereo not drawn) the MIC (Staphylococcus aureus [1]) was 25 µg/mL (≈ 46.9 µM) and the MIC (Staphylococcus aureus [2]) was 25 µg/mL (≈ 46.9 µM).
For Cc1nn(-c2ccc(Cl)cc2Cl)c(Oc2cccc(C(F)(F)F)c2)c1C1N=C(N)NC(NCCc2ccccc2)=N1 (stereo not drawn), the MIC (Staphylococcus aureus [3]) was 0.5 µg/mL (≈ 0.83 µM).
In the case of CCCn1ncc2c3c(C#N)c4ccc(Br)cc4nc3ccc21, the MIC (Staphylococcus aureus [4]) is reported as 1 µg/mL (≈ 2.74 µM).
Clc1ccc(-c2nn(-c3ccccc3)cc2-c2nc3ccccn3c2Cc2ccccc2)cc1 showed an MIC (Pseudomonas aeruginosa) of under 1 µg/mL, an MIC (Klebsiella pneumoniae) of under 1 µg/mL and an MIC [5] of under 1 µg/mL. For the same compound, the MIC (Escherichia coli) was under 1 µg/mL.
For CC(C)Cn1ncc2c3c(C#N)c4ccc(Br)cc4nc3ccc21, the MIC (Staphylococcus aureus [4]) was 6 µg/mL (≈ 15.8 µM).
NC(=O)c1cnn(-c2ccc([N+](=O)[O-])cc2[N+](=O)[O-])c1NC(=O)c1ccc(Br)cc1 was tested, and the MIC (Staphylococcus aureus [6]) was 29.4 µg/mL (≈ 61.9 µM).
In the case of O=C(/C=C/c1cccc([N+](=O)[O-])c1)N1N=C(c2ccncc2)OC1c1cn(-c2ccccc2)nc1-c1ccc(F)cc1 (stereo not drawn), the MIC (Staphylococcus aureus [1]) is reported as over 50 µg/mL and the MIC (Staphylococcus aureus [2]) is reported as over 50 µg/mL.
O=C(c1cc(C(F)(F)F)n[nH]1)c1cccc(Br)c1O showed an MIC (Staphylococcus aureus [7]) of under 0.125 µg/mL.
Work on O=C(c1cc(C(F)(F)F)n[nH]1)c1cc(Cl)cc(Cl)c1O yielded an MIC (Staphylococcus aureus [7]) of under 0.125 µg/mL.
With Cc1nn(-c2ccc(Br)cc2)c2c1C(C(=O)O)CC=C(C(=O)O)N2 (stereo not drawn) the MIC (Staphylococcus aureus [8]) was over 500 µg/mL.
NC(=O)c1cnn(-c2ccc([N+](=O)[O-])cc2[N+](=O)[O-])c1NC(=O)c1ccc(Cl)cc1 was tested, and the MIC (Staphylococcus aureus [6]) was 39 µg/mL (≈ 90.5 µM).
Cc1nn(-c2ccccc2)c2c1C(C(=O)O)CC=C(C(=O)O)N2 (stereo not drawn) gave an MIC (Staphylococcus aureus [8]) of over 500 µg/mL.
Work on O=C(O)c1ccc(-n2cc(/C=N/c3ccc(C(F)(F)F)cc3)c(-c3ccc4ccccc4c3)n2)cc1 yielded an MBC (Staphylococcus aureus [9]) of 25 µg/mL (≈ 51.5 µM) and an MIC (Staphylococcus aureus [9]) of 0.78 µg/mL (≈ 1.61 µM).
O=C(O)c1ccc(-n2cc(/C=N/c3ccc(Cl)cc3Cl)c(-c3ccc4ccccc4c3)n2)cc1 was tested, and the MBC (Staphylococcus aureus [9]) was 6.25 µg/mL (≈ 12.9 µM) and the MIC (Staphylococcus aureus [9]) was 0.78 µg/mL (≈ 1.6 µM).
In the case of CC1=C(C(=O)O)N2C(=O)[C@@H](NC(=O)[C@H](N)c3ccccc3)[C@H]2SC1 [CEPHALEXIN ANHYDROUS], the MIC (Staphylococcus aureus [6]) is reported as 72 µg/mL (≈ 207 µM).
With COc1cc(/C=C/c2cc(/C=C/c3ccc(OCC(=O)N[C@H](C)c4ccccc4)c(OC)c3)[nH]n2)ccc1OCC(=O)N[C@H](C)c1ccccc1 the MIC (Staphylococcus aureus [10]) was 10 µM (≈ 6.87 µg/mL).
For O=C1S/C(=C\c2cn(-c3ccccc3)nc2-c2ccc(Cl)cc2Cl)C(=O)N1CCCn1ccc2ccccc21, the MIC (Staphylococcus aureus [11]) was 6.25 µg/mL.
In the case of Cc1nn(-c2ccccc2Cl)c2c1C(C(=O)O)CC=C(C(=O)O)N2 (stereo not drawn), the MIC (Staphylococcus aureus [8]) is reported as over 500 µg/mL.
In the case of CC(=O)Nc1c(C(N)=O)cnn1-c1ccc([N+](=O)[O-])cc1[N+](=O)[O-], the MIC (Staphylococcus aureus [6]) is reported as 99.4 µg/mL (≈ 297 µM).
O=C(/C=C/c1ccc([N+](=O)[O-])cc1)N1N=C(c2ccncc2)OC1c1cn(-c2ccccc2)nc1-c1ccc(F)cc1 (stereo not drawn) showed an MIC (Staphylococcus aureus [1]) of 12.5 µg/mL (≈ 22.3 µM) and an MIC (Staphylococcus aureus [2]) of 12.5 µg/mL (≈ 22.3 µM).
CCCn1ncc2c3c(C#N)c4ccccc4nc3ccc21 gave an MIC (Staphylococcus aureus [4]) of 3 µg/mL (≈ 10.5 µM).
With CC[C@H]1OC(=O)[C@H](C)[C@@H](O[C@H]2C[C@@](C)(OC)[C@@H](O)[C@H](C)O2)[C@H](C)[C@@H](O[C@@H]2O[C@H](C)C[C@H](N(C)C)[C@H]2O)[C@](C)(O)C[C@@H](C)C(=O)[C@H](C)[C@@H](O)[C@]1(C)O [ERYTHROMYCIN] the MIC (Staphylococcus aureus [6]) was 32 µg/mL (≈ 43.6 µM).
NC(=O)c1cnn(-c2ccc([N+](=O)[O-])cc2[N+](=O)[O-])c1NC(=O)c1cccc(Cl)c1 showed an MIC (Staphylococcus aureus [6]) of 45.3 µg/mL (≈ 105 µM).
Work on CC1(C)S[C@@H]2[C@H](NC(=O)[C@H](N)c3ccccc3)C(=O)N2[C@H]1C(=O)O [AMPICILLIN] yielded an MIC (Staphylococcus aureus [4]) of 62 µg/mL (≈ 177 µM).
C/C(=N/NC1=NCCN1)c1cnn(-c2ccc(C#CC(C)(C)C)cc2)c1C gave an Activity (Staphylococcus aureus [12]) of 62%.
O=C(O)c1ccc(-n2cc(/C=N/c3cccc(Cl)c3F)c(-c3ccc4ccccc4c3)n2)cc1 gave an MBC (Staphylococcus aureus [9]) of 12.5 µg/mL (≈ 26.6 µM) and an MIC (Staphylococcus aureus [9]) of 0.78 µg/mL (≈ 1.66 µM).
With Cc1nn(-c2ccc(Cl)cc2Cl)c(Oc2ccc(Br)cc2)c1C1N=C(N)NC(NCCc2ccccc2)=N1 (stereo not drawn) the MIC (Staphylococcus aureus [3]) was 0.5 µg/mL (≈ 0.815 µM).
With O=C1CN(c2nnc(-c3cccc(Br)c3)s2)C(c2cn(-c3ccccc3)nc2-c2cccc([N+](=O)[O-])c2)S1 (stereo not drawn) the MBC (Staphylococcus aureus [4]) was 156 µg/mL (≈ 258 µM).
For Cn1ncc2c3c(C#N)c4ccc(Br)cc4nc3ccc21, the MIC (Staphylococcus aureus [4]) was 2 µg/mL (≈ 5.93 µM).
O=C(c1cc(C(F)(F)F)n[nH]1)c1ccc(Cl)cc1O gave an MIC (Staphylococcus aureus [7]) of under 0.125 µg/mL.
O=C1S/C(=C\c2cn(-c3ccccc3)nc2-c2cccc([N+](=O)[O-])c2)C(=O)N1CCCn1ccc2ccccc21 showed an MIC (Staphylococcus aureus [11]) of 50 µg/mL.
Compound CCn1ncc2c3c(C#N)c4ccccc4nc3ccc21 has an MIC (Staphylococcus aureus [4]) of 3 µg/mL (≈ 11 µM).
In the case of Oc1ccccc1-c1nn(-c2ccccc2)cc1-c1nc2ccccn2c1Cc1ccccc1, the MIC (Pseudomonas aeruginosa) is reported as under 1 µg/mL, the MIC (Klebsiella pneumoniae) is reported as under 1 µg/mL and the MIC [5] is reported as under 1 µg/mL. For the same compound, the MIC (Escherichia coli) was under 1 µg/mL.
Work on Cc1nn(-c2ccc(C#N)cc2)c2c1C(C(=O)O)CC=C(C(=O)O)N2 (stereo not drawn) yielded an MIC (Staphylococcus aureus [8]) of over 500 µg/mL.
O=C(/C=C/c1ccc(F)cc1)N1N=C(c2ccncc2)OC1c1cn(-c2ccccc2)nc1-c1ccc(F)cc1 (stereo not drawn) showed an MIC (Staphylococcus aureus [1]) of 6.25 µg/mL (≈ 11.7 µM) and an MIC (Staphylococcus aureus [2]) of 6.25 µg/mL (≈ 11.7 µM).
